One experiment has as its system SC-3. The experiment is described as follows: Growth inhibition of mouse SC3 cells after 3 days by WST-8 assay. In kind it is functional, cell-based. The conditions noted are these: SC-3, 72 h. A general note: Formazan colour is commonly taken as a measure of viable cells.
The subject of another experiment is LNCaP. Description: Growth stimulatory activity of human LNCAP cells. In kind it is functional, cell-based.

The source made the active and inactive calls. The calls are words filed in the database; no cut-off is given here.

As to `C[C@](O)(CS(=O)(=O)c1ccc(F)cc1)C(=O)Nc1ccc(C#N)c(C(F)(F)F)c1` [(R)-BICALUTAMIDE], 140 nM corresponded to half-maximal inhibition in the experiment on SC-3 (IC50). `CC(C)C(=O)Nc1ccc([N+](=O)[O-])c(C(F)(F)F)c1` [FLUTAMIDE]: the outcome in the experiment on LNCaP was Active. In addition, the IC50 in the experiment on SC-3 was found to be 720 nM. The like results for `CC(C)(O)C(=O)Nc1ccc([N+](=O)[O-])c(C(F)(F)F)c1` [HYDROXYFLUTAMIDE] were, in that order, “Active” and 240 nM.

One may read the IC50 as the point on the concentration scale where inhibition reaches its midpoint.

These data come from ChEMBL document CHEMBL1177715, “Design and synthesis of androgen receptor full antagonists bearing a p-carborane cage: promising ligands for anti-androgen withdrawal syndrome” (J Med Chem, 2010).
